Key:
[1] = molecular target: cloned human δ opioid receptor (Homo sapiens, UniProt P41143); test: biochemical
[2] = molecular target: cloned human κ opioid receptor (Homo sapiens, UniProt P41145); test: biochemical; type: biochemical; details: for times less potent than JDTic as a κ opioid receptor antagonist: ratio of κ Ke values vs JDTic
[3] = molecular target: cloned human μ opioid receptor (Homo sapiens, UniProt P35372); type: biochemical; details: ratio of μ Ke values vs 3b
Chain of cloned human μ opioid receptor (P35372 whole entry): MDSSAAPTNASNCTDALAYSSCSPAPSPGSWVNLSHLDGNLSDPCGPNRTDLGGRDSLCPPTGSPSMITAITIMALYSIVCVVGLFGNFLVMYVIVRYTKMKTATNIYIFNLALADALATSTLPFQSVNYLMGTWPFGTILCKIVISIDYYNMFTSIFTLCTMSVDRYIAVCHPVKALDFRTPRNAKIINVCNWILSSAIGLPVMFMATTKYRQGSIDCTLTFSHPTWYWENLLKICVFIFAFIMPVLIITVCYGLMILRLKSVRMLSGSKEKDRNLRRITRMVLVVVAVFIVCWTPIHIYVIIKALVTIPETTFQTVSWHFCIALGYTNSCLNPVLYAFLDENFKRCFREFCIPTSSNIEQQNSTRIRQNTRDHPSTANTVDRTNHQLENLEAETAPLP

Chain of cloned human κ opioid receptor (P41145 whole entry): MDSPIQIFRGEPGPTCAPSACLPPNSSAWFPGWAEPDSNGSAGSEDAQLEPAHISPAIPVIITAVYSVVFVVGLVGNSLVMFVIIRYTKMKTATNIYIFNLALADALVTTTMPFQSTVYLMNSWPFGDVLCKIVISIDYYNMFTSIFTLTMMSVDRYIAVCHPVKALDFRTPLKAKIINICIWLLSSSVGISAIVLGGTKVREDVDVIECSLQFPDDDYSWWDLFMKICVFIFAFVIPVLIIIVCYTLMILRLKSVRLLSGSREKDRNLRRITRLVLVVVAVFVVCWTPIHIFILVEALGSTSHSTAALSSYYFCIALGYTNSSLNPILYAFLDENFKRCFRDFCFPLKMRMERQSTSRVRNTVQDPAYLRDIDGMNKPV
Chain of cloned human δ opioid receptor (P41143 whole entry): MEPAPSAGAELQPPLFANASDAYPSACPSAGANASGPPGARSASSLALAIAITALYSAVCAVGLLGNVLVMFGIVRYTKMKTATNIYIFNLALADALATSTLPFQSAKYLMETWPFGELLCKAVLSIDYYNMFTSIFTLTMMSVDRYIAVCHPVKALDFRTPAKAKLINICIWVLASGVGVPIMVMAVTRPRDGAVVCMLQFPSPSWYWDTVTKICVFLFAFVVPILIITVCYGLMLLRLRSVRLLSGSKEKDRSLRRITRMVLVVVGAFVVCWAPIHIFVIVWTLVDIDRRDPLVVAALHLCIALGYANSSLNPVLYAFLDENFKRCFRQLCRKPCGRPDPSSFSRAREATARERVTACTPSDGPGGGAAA

Structure (SMILES)	Kb [1] [nM]	times less potent than JDTic as a κ opioid receptor antagonist [2] [fold]	also measured
CC(C)[C@@H](CN1CCC(C)(c2cccc(O)c2)CC1)NC(=O)[C@H]1Cc2ccc(O)cc2CN1 [Compound 4a, (3R)-7-Hydoxy-N-[(1S)-1-{[4-(3-hydroxyphenyl)-4-methylpiperidin-1-yl]methyl}-2-methylpropyl]-1,2,3,4-tetrahydroisoquinoline-3-carboxamide]	927 ± 350	35	–
CC(C)[C@@H](CN1CCC(c2ccccc2)CC1)NC(=O)[C@H]1Cc2ccc(O)cc2CN1 [Compound 4e, (3R)-7-Hydroxy-N-{(1S)-2-methyl-1-[(4-phenylpiperidin-1-yl]methyl]propyl}-1,2,3,4-tetrahydroisoquinoline-3-carboxamide]	281 ± 44	2.6	Kb [2]: 0.051 ± 0.01 nM; times less potent than 3a as a κ antagonist ([2]; ratio of κ Ke values vs 3a): 2 fold
CC(C)[C@@H](CN1CCC(C)(c2cccc(F)c2)CC1)NC(=O)[C@H]1Cc2ccc(O)cc2CN1 [Compound 4b, (3R)-N-[(1S)-1-{[4-(3-fluorophenyl)-4-methylpiperidin-1-yl]methyl}-2-methylpropyl]-7-hydroxy-1,2,3,4-tetrahydroisoquinoline-3-carboxamide]	–	9	functional profile in the [35S]GTPγS test (opioid receptors): pure opioid antagonist
CC(C)[C@@H](CN1CCC(c2cccc(F)c2)CC1)NC(=O)[C@H]1Cc2ccc(O)cc2CN1 [Compound 4f, (3R)-N-[(1S)-1-{[4-(3-Fluorophenyl)piperidin-1-yl]methyl}-2-methylpropyl]-7-hydroxy-1,2,3,4-tetrahydroisoquinoline-3-carboxamide]	–	–	times more potent as a μ antagonist than 3b [3]: 4 fold
CC[C@H](C)[C@@H](CN1CCC(C)(c2cccc(F)c2)CC1)NC(=O)[C@H]1Cc2ccc(O)cc2CN1 [Compound 4c, (3R)-N-[(1S,2S)-1-{[4-(3-Fluorophenyl)-4-methylpiperidin-1-yl]methyl}-2-methylbutyl]-7-hydroxy-1,2,3,4-tetrahydroisoquinoline-3-carboxamide]	903 ± 200	–	δ/κ [2]: 27,363; μ/κ [2]: 342

— PMC4582009 (Bioorganic & medicinal chemistry, 2015)
